# Patent US5846516A, “Perfluoroalkylated amphiphilic phosphorus compounds: preparation and biomedical applications” (Alliance Pharmaceutial Corp., priority 1992, dated 1998)
# Like-named read-outs stand apart in the source and are kept apart here.
# Key:
# [1] = Critical micellar concentration (CMC); assay type: physicochemical; settings: aqueous solutions, 20° C.
# Description: (§1) The compounds described in this invention are very efficient surface agents, greatly lowering the surface (γs) and interfacial (γi) tensions between water and a fluorocarbon when added to water. Thus at 1 g/L in water, γs goes from 73 (pure water) to 19.7-33.8 mNm^-1, and γi [water/perfluorodecalin (FDC) or perfluorooctyl bromide (PFOB) ] goes from 56 and 51 (in the absence of surfactant) to 5.1-8.9 mNm^-1 and 4.7-10.5 mNm^-1 respectively, as illustrated by the examples assembled in the table below. These compounds are also characterized by low values of critical micellar concentration: (CMC:from 1.10^-6 to 1.7.10^-3 M).
# (§2) Surface Activity Data of Aqueous Solutions
# [2] = Toxicity in mice after intravenous injection (LD50, survival); assay type: in vivo; settings: mouse, in vivo; intravenous injection into mice
# Description: (§3) Compound 22 is non-hemolytic at a 50 g/L concentration, and its LD50 is higher than 2000 mg/kg in intravenous injection into mice. […] Furthermore, these derivatives show a higher i.v. tolerance than the single-chain compounds disclosed in WO 90/15807 C (25 ≤LD50 ≤125 mg/kg bw).
# mice = test: as above; assay type: in vivo; settings: for Toxicity in mice, Survival: i.v.
# Description: as §3
# [3] = Hemolysis of red blood cells; assay type: cell-based, human; settings: human, read-out: Hemolysis, % hem.
# Description: as §3
# (§4) *solution added to an equal volume of a suspension, at 1% concentration o
# (§5) washed red blood cells in saline.
# human red blood cells = test: Hemolysis of red blood cells; assay type: cell-based
# Description: as §3, §4, §5
# [4] = Dispersibility in water at 25° C.
# [5] = Surface activity of aqueous solutions: surface (γs) and interfacial (γi) tensions; assay type: physicochemical; settings: 20° C., ±0.3 mNm^-1
# Description: as §1, with “[…],” for “Thus at 1 g/L in water,”
# as §2
# [6] = Growth and viability of Namalva cell cultures; assay type: cell-based; settings: human; for activity: namalva cells; for viability: Namalva cells
# [7] = Ageing of sonicated perfluorodecalin (FDC 50% w/v) emulsions at 40° C., average particle size; assay type: physicochemical; settings: FIG. 5; 50% w/v PFD sterilized emulsions, 3% surfactant
# Description: (§6) The products described in this invention, used as surfactants or co-surfactants, allow the preparation and stabilization of fluorocarbon emulsions. The emulsions were prepared by sonification (BRANSON B30 sonicator) (for 50% w/v of fluorocarbon) or by high-pressure microfluidization ((MICROFLUIDICS M 110)) (for more concentrated fluorocarbon emulsions). The ageing of these emulsions at 40° C. (accelerated ageing conditions) was followed by measuring the average size of the particles by a photosedimentation method (HORIBA CAPA 500) and compared with reference emulsions prepared with natural egg-yolk lecithins or poloxamers, for example Pluronic F-68.
# To prepare 12 mL of an emulsion of FDC (50% w/v) with 3% w/v of 7b, the surfactant (360 mg) was first sonicated in a rosette cell at 0° C., in 8.55 mL of water. Next, the FDC (6 g) was added and the whole is sonicated, until optimal average particle size and size distribution are obtained. The emulsion was then divided into aliquots, stocked under inert atmosphere, sterilized for 8 min at 121° C. in an autoclave, then stored at 40° C. and monitored over time.
# The same process but with a mixture of surfactants composed of 120 mg of 7b and 240 mg of natural egg-yolk lecithins (EYP) gave FDC emulsion with the following average particle sizes: 0.15 μm on preparation, 0.21 μm after sterilization and 0.32 μm after 30 days at 40° C. […]
# [8] = assay type: physicochemical; settings: 90% w/v PFOB
# Description: as §6
# To prepare 40 mL of a 90% w/v PFOB emulsion, surfactant 7b (400 mg) was first dispersed in 19.6 mL of a phosphate buffer with an Ultra Turrax. PFOB (36 g) was then added slowly and the whole was mixed for 10 min at 24000 revolutions/min. The resulting pre-emulsion was transferred into a microfluidizer and emulsified for 1 min at 800-1000 bar.
# This emulsion was prepared as for example 28 with 200 mg of 7b and 1.4 g of EYP for 35 g of PFOB.
compound,measurement,setting,value
"O=P(O)(OCCC(F)(F)C(F)(F)C(F)(F)C(F)(F)C(F)(F)C(F)(F)F)OC[C@H]1OC(O)[C@H](O)[C@@H](O)[C@@H]1O (stereo partly drawn) [Compound 7a, [2-(F-hexyl)ethyl](6-D-glucosyl)(sodium)phosphate]",CMC,[1],1.55 mM
same,LD50,[2],~750 mg/kg
same,"Toxicity in mice, Survival",mice; dose 750 (mg/kg),4/10
same,hemolysis,"[3]; 100 g/L, solution added to an equal volume of 1% washed red blood cells in saline",0%
same,hemolytic activity (in words),human red blood cells; even at 100 g/L,no hemolytic activity
same,solubility,[4],350 mg/mL
same,γi /FDC (interfacial tension water/perfluorodecalin),[5]; 1 g/L in water,5.6 mNm^-1
same,γi /PFOB (interfacial tension water/perfluorooctyl bromide),[5]; 1 g/L in water,4.7 mNm^-1
same,γs (surface tension),[5]; 1 g/L in water,19.7 mNm^-1
same,activity,[6]; 0.1 g/L,82%
same,activity,[6]; 1 g/L,51%
same,viability,[6]; 1 g/L,97%
"O=P(O)(OCCC(F)(F)C(F)(F)C(F)(F)C(F)(F)C(F)(F)C(F)(F)C(F)(F)C(F)(F)F)OC[C@H]1OC(O)[C@H](O)[C@@H](O)[C@@H]1O (stereo partly drawn) [Compound 7b, [2-(F-octyl)ethyl](6-D-glucosyl)(sodium)phosphate]","Toxicity in mice, Survival",mice; dose 125 (mg/kg),10/10
same,hemolysis,"[3]; 30 g/L, dispersed in a 20 g/L Pluronic F68 solution, added to an equal volume of 1% washed red blood cells in saline",0%
same,hemolytic effect (in words),human red blood cells; dispersion at 30 g/L in 20 g/L Pluronic F-68,no hemolytic effect
same,ageing at 40° C. of perfluorodecalin emulsions (in words),[7],superimposable
same,activity,[6]; 1 g/L,76%
same,viability,[6]; 1 g/L,104%
same,stability of PFOB emulsion vs. EYP emulsion (in words),"[8]; FIG. 6, 1% w/v 7b vs 4% EYP, 40° C.",more stable than an emulsion containing 4% of EYP
same,co-surfactant effect with EYP on particle size and stabilization (in words),"[8]; FIG. 7, 1/8th of 4% EYP replaced by 7b",significantly reduces the average particle size and causes strong stabilization
"O=P(O)(OCCC(F)(F)C(F)(F)C(F)(F)C(F)(F)C(F)(F)C(F)(F)C(F)(F)C(F)(F)F)O[C@H]1[C@H](O)[C@@H](CO)OC(O)[C@@H]1O (stereo partly drawn) [Compound 8b, [2-(F-octyl)ethyl] (3-D-glucosyl)(sodium) phosphate]",CMC,[1],1.68 mM
same,ageing at 40° C. of perfluorodecalin emulsions (in words),[7],superimposable
same,solubility,[4],250 mg/mL
same,γi /FDC (interfacial tension water/perfluorodecalin),[5]; 1 g/L in water,5.6 mNm^-1
same,γi /PFOB (interfacial tension water/perfluorooctyl bromide),[5]; 1 g/L in water,8.3 mNm^-1
same,γs (surface tension),[5]; 1 g/L in water,27.5 mNm^-1
"[2-(F-octyl)ethyl] bis [polyethylene glycol methyl ether] phosphate triester 20, n=7 [Compound 20]",CMC,[1],0.025 mM
same,"Dispersibility at 25° C., g/L in water",,> 100 g/L
same,γi /FDC (interfacial tension water/perfluorodecalin),[5]; 0.1 g/L (0.083 mM) in water,13.1 mNm^-1
same,γi /PFOB (interfacial tension water/perfluorooctyl bromide),[5]; 0.1 g/L (0.083 mM) in water,9.2 mNm^-1
same,γs (surface tension),[5]; 0.1 g/L (0.083 mM) in water,33.8 mNm^-1
"[5-(F-octyl)pentyl] bis [polyethylene glycol methyl ether] phosphate triester 21, n=7 [Compound 21]",CMC,[1],0.001 mM
same,"Toxicity in mice, Survival",mice; dose 500 (mg/kg),10/10
same,"Toxicity in mice, Survival",mice; dose 1000 (mg/kg),3/10
same,"Dispersibility at 25° C., g/L in water",,> 100 g/L
same,γi /FDC (interfacial tension water/perfluorodecalin),[5]; 0.01 g/L (0.008 mM) in water,9.6 mNm^-1
same,γi /PFOB (interfacial tension water/perfluorooctyl bromide),[5]; 0.01 g/L (0.008 mM) in water,7.5 mNm^-1
same,γs (surface tension),[5]; 0.01 g/L (0.008 mM) in water,29.6 mNm^-1
"[5-(F-octyl)pentyl] bis [polyethylene glycol methyl ether] phosphate triester 22, n=16 [Compound 22]","Toxicity in mice, Survival",mice; dose 2000 (mg/kg),10/10
same,LD50,mice; intravenous injection into mice,higher than 2000 mg/kg
same,in vivo (i.v.) tolerance (in words),"mice; intravenous, mice",in vivo tolerance increases from 21 to 22
same,hemolytic activity (in words),human red blood cells; 50 g/L,non-hemolytic
